According to patent publication US7691867B2, “Chemical compounds” (AstraZeneca AB, priority 2003, dated 2010):

How the values were obtained:
[1] = target: T1, Aurora-A kinase (Homo sapiens, UniProt O14965); test: In vitro Aurora-A kinase inhibition test; format: biochemical
T1 sequence (O14965 1-403): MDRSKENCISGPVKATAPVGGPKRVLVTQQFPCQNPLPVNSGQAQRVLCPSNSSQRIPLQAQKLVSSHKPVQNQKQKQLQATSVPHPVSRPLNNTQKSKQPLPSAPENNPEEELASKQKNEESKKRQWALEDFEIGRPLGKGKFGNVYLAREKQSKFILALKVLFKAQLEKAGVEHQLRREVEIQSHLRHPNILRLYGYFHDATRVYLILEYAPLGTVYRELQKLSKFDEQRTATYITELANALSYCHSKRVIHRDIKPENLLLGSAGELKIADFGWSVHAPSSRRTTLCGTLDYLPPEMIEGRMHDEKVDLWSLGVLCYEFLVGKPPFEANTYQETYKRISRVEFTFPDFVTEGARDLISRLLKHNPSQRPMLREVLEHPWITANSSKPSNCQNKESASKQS

[2] = target: Aurora-B kinase (Homo sapiens, UniProt Q96GD4); test: In vitro Aurora-B kinase inhibition test; format: biochemical; details: recombinant Aurora-B, peptide substrate, [γ33P]ATP, 60 minutes at room temperature; read-out: 50% inhibition of enzyme activity at a concentration of
Experimental: (b) In Vitro Aurora-B Kinase Inhibition Test
This assay determines the ability of a test compound to inhibit serine-threonine kinase activity. DNA encoding Aurora-B may be obtained by total gene synthesis or by cloning. This DNA may then be expressed in a suitable expression system to obtain polypeptide with serine-threonine kinase activity.
For the large scale expression of Aurora-B kinase activity, Sf21 insect cells were grown at 28° C. in TC100 medium supplemented with 10% foetal calf serum (Viralex) and 0.2% F68 Pluronic (Sigma) on a Wheaton roller rig at 3 r.p.m. When the cell density reached 1.2×10^6 cells ml^−1 they were infected with plaque-pure Aurora-B recombinant virus at a multiplicity of infection of 1 and harvested 48 hours later. All subsequent purification steps were performed at 4° C. Frozen insect cell pellets containing a total of 2.0×10^8 cells were thawed and diluted with lysis buffer (50 mM HEPES (N-[2-hydroxyethyl]piperazine-N′-[2-ethanesulphonic acid]) pH 7.5 at 4° C., 1 mM Na3VO4, 1 mM PMSF (phenylmethylsulphonyl fluoride), 1 mM dithiothreitol, 1 μg/ml aprotinin, 1 μg/ml pepstatin, 1 μg/ml leupeptin), using 1.0 ml per 2×10^7 cells. Lysis was achieved using a sonication homogeniser, following which the lysate was centrifuged at 41,000 g for 35 minutes. Aspirated supernatant was pumped onto a 5 mm diameter chromatography column containing 1.0 ml CM sepharose Fast Flow (Amersham Pharmacia Biotech) which had been equilibrated in lysis buffer. A baseline level of UV absorbance for the eluent was reached after washing the column with 12 ml of lysis buffer followed by 7 ml of wash buffer (50 mM HEPES pH 7.4 at 4° C., 1 mM dithiothreitol). Bound Aurora-B B protein was eluted from the column using a gradient of elution buffer (50 mM HEPES pH 7.4 at 4° C., 0.6 M NaCl, 1 mM dithiothreitol, running from 0% elution buffer to 100% elution buffer over 15 minutes at a flowrate of 0.5 ml/min). Elution fractions (1.0 ml) corresponding to the peak in UV absorbance was collected. […]

[3] = system: human tumour cell line SW620; test: In vitro cell proliferation assay (BrdU incorporation); format: cell-based; details: SW-620, SW620 cells, 48 hours with compound, BrdU incorporation over 2 hour labelling period, read-out: 50% inhibition of enzyme activity at a concentration of
Description: (c) In Vitro cell Proliferation Assay
This and other assays can be used to determine the ability of a test compound to inhibit the growth of adherent mammalian cell lines, for example the human tumour cell line SW620 (ATCC CCL-227). This assay determines the ability of at test compound to inhibit the incorporation of the thymidine analogue, 5′-bromo-2′-deoxy-uridine (BrdU) into cellular DNA. SW620 or other adherent cells were typically seeded at 1×10^5 cells per well in L-15 media (GIBCO) plus 5% foetal calf serum, 1% L-glutamine (100 μl /well) in 96 well tissue culture treated 96 well plates (Costar) and allowed to adhere overnight. The following day the cells were dosed with compound (diluted from 10 mM stock in DMSO using L-15 (with 5% FCS, 1% L-glutamine). Untreated control wells and wells containing a compound known to give 100% inhibition of BrdU incorporation were included on each plate. After 48 hours in the presence/absence of test compound the ability of the cells to incorporate BrdU over a 2 hour labelling period was determined using a Boehringer (Roche) Cell Proliferation BrdU EUSA kit (cat. No. 1 647 229) according to manufacturers directions. Briefly, 15 μl of BrdU labelling reagent (diluted 1:100 in media—L-15, 5% FCS, 1% L-glutamine) was added to each well and the plate returned to a humidified (+5% CO2) 37° C. incubator for 2 hours. After 2 hours the labelling reagent was removed by decanting and tapping the plate on a paper towel. FixDenat solution (50 μl per well) was added and the plates incubated at room temperature for 45 mins with shaking. The FixDenat solution was removed by decanting and tapping the inverted plate on a paper towel. The plate was then washed once with phosphate buffered saline (PBS) and 100 μl/well of Anti-BrdU-POD antibody solution (diluted 1:100 in antibody dilution buffer) added. The plate was then incubated at room temperature with shaking for 90 min. […] The optical density of the wells was then determined at 690 nm wavelength using a Titertek Multiscan plate reader. […]

[4] = system: SW620 cells; test: In vitro cell cycle analysis assay; format: cell-based; details: Homo sapiens, SW-620, 24 hours with compound, DNA content by FACS, read-out: 50% inhibition of enzyme activity at a concentration of
Experimental: (d) In Vitro Cell Cycle Analysis Assay
This assay determines the ability of a test compound to arrest cells in specific phases of the cell cycle. Many different mammalian cell lines could be used in this assay and SW620 cells are included here as an example. SW620 cells were seeded at 7×10^5 cells per T25 flask (Costar) in 5 ml L-15 (5% FCS, 1% L-glutamine). Flasks were then incubated overnight in a humidified 37° C. incubator with 5% CO2. The following day, 5 μl of L-15 (5% FCS, 1% L-glutamine) carrying the appropriate concentration of test compound solubilised in DMSO was added to the flask. A no compound control treatment was also included (0.5% DMSO). The cells were then incubated for a defined time (24 hours) with compound. After this time the media was aspirated from the cells and they were washed with 5 ml of prewarmed (37° C.) sterile PBSA, then detached from the flask by brief incubation with trypsin and followed by resuspension in 5 ml of 1% Bovine Serum Albumin (BSA, Sigma-Aldrich Co.) in sterile PBSA. The samples were then centrifuged at 2200 rpm for 10 min. The supernatant was aspirated to leave 200 μl of the PBS/BSA solution. The pellet was resuspended in this 200 μl of solution by pipetting 10 times to create a single cell suspension. One ml of ice-cold 80% ethanol was slowly added to each cell suspension and the samples stored at −20° C. overnight or until required for staining. […]
Each sample was then syringed 10 times using 21-guage needle. The samples were then transferred to LPS tubes and DNA content per cell analysed by Fluorescence activated cell sorting (FACS) using a FACScan flow cytometer (Becton Dickinson). Typically 30,000 events were counted and recorded using CellQuest v1.1 software (Verity Software). Cell cycle distribution of the population was calculated using Modfit software (Verity Software) and expressed as percentage of cells with 2N (G0/G1), 2N4N (S phase) and with 4N (G2/M) DNA content.

Sequence of Aurora-B kinase (Q96GD4 whole entry): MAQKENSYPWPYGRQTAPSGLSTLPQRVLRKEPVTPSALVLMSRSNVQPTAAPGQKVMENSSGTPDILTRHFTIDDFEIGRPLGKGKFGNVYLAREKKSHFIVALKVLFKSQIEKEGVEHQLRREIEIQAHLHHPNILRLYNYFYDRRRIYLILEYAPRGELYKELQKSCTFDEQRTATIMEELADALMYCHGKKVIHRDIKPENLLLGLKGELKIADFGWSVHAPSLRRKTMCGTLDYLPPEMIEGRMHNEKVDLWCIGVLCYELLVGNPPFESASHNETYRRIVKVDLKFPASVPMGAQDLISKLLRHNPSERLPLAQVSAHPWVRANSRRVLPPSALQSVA

Compound: COc1cc2c(Nc3cnn(CC(=O)Nc4cccc(F)c4)c3)ncnc2cc1OCCCN1CCC[C@@H]1CO [Compound 27, N-(3-fluorophenyl)-2-{4-[(7-{3-[(2R)-2-(hydroxymethyl)pyrrolidin-1-yl]propoxy}-6-methoxyquinazolin-4-yl)amino]-1H-pyrazol-1-yl}acetamide]
- IC50 [1]: 34 nM
- IC50 [2]: 5 nM
- IC50 [3]: 10 nM
- IC50 [4]: 7 nM

Compound: CCN(CCO)CCCOc1ccc2c(Nc3cnn(CC(=O)Nc4cccc(F)c4)c3)ncnc2c1 [Compound 187, 2-{4-[(7-{3-[ethyl(2-hydroxyethyl)amino]propoxy}quinazolin-4-yl)amino]-1H-pyrazol-1-yl}-N-(3-fluorophenyl)acetamide]
- IC50 [1]: 500 nM
- IC50 [2]: 9 nM
- IC50 [3]: 1 nM
- IC50 [4]: 21 nM

Compound: COc1cc2c(Nc3cnn(CC(=O)Nc4cccc(F)c4F)c3)ncnc2cc1OCCCN(CCO)CC(C)C [Compound 60, N-(2,3-difluorophenyl)-2-{4-[(7-{3-[(2-hydroxyethyl)(isobutyl)amino]propoxy}-6-methoxyquinazolin-4-yl)amino]-1H-pyrazol-1-yl}acetamide]
- IC50 [1]: 10 nM
- IC50 [2]: 8 nM
- IC50 [3]: 1 nM
- IC50 [4]: 3 nM
